Data: US20190343828A1, “CAMPTOTHECIN PEPTIDE CONJUGATES” (SEATTLE GENETICS, INC., priority 2018, published 2019)

Experiments:
[1] = test system: Burkitt's lymphoma cells (Ramos); experiment: In vitro cytotoxicity, CellTiter-Glo 96 h, Ramos; details: Homo sapiens, read-out: Cytotoxic potency as free drug, IC50, Ramos
[2] = test system: multiple drug resistant acute promyelocytic leukemia cells (HL-60/RV); experiment: In vitro cytotoxicity, CellTiter-Glo 96 h, HL60/RV; details: Homo sapiens, HL-60, read-out: Cytotoxic potency (IC50 class), HL60/RV
Protocol: (§2) In vitro potency was assessed on multiple cancer cell lines. All cell lines were authenticated by STR profiling at IDEXX Bioresearch and cultured for no more than 2 months after resuscitation. Cells cultured in log-phase growth were seeded for 24 hours in 96-well plates containing 150 μl RPMI 1640 supplemented with 20% FBS. Serial dilutions of antibody-drug conjugates in cell culture media were prepared at 4× working concentrations, and 50 μl of each dilution was added to the 96-well plates. Following addition of test articles, cells were incubated with test articles for 4 days at 37° C. After 96 hours, growth inhibition was assessed by CellTiter-Glo® (Promega, Madison, Wis.) and luminescence was measured on a plate reader.
(§3) Cell viability was determined by CellTiter-Glo staining after 96 h exposure to ADC.

[3] = test system: pancreatic cancer cells (BxPC3); experiment: In vitro cytotoxicity, CellTiter-Glo 96 h, BxPC3; details: Homo sapiens, BXPC-3, read-out: Cytotoxic potency (IC50 class), BxPC3
[4] = test system: acute myeloid leukemia cells (MOLM13); experiment: In vitro cytotoxicity, CellTiter-Glo 96 h, MOLM13; details: Homo sapiens, MOLM-13, read-out: Cytotoxic potency as free drug, IC50, MOLM13
Protocol: as §2, §3

[5] = test system: renal carcinoma cells (786-O); experiment: In vitro cytotoxicity, CellTiter-Glo 96 h, 786-O; details: Homo sapiens, 786-0, read-out: Cytotoxic potency (IC50 class), 786-O
Protocol: as §2, §3

[6] = test system: multiple myeloma cells (MM.1R); experiment: In vitro cytotoxicity, CellTiter-Glo 96 h, MM.1R; details: read-out: Cytotoxic potency (IC50 class), MM.1R
Protocol: as §2
(§4) Cell viability was determined by CellTiter-Glo staining after 96 h exposure to ADC. […] Ag1 is an antibody targeting a ubiquitous and readily internalizable antigen on cancer cells, Ag2 is cAC10 antibody targeting CD30(+) cancer cells, Ag3 is h1F6 antibody targeting CD70(+) cancer cells, Ag4 is hMEM102 antibody targeting CD48(+) cancer cells, Ag5 is h20F3 antibody targeting NTB-A expressing cancer cells, and h00 is a non-binding control antibody.

[7] = test system: acute promyelocytic leukemia cells (HL-60); experiment: In vitro cytotoxicity, CellTiter-Glo 96 h, HL-60; details: Homo sapiens, HL-60, read-out: Cytotoxic potency (IC50 class), HL-60
Protocol: as §2, §4

[8] = test system: B-lymphocyte cancer cells (SU-DHL-4); experiment: In vitro cytotoxicity, CellTiter-Glo 96 h, SU-DHL-4; details: Homo sapiens, SU-DHL-4, read-out: Cytotoxic potency as free drug, IC50, SU-DHL-4
Protocol: as §2, §4

[9] = test system: B-lymphocyte cancer cells (U266); experiment: In vitro cytotoxicity, CellTiter-Glo 96 h, U266; details: Homo sapiens, U-266, read-out: Cytotoxic potency as free drug, IC50, U266
Protocol: as §2, §4

[10] = test system: Hodgkin's lymphoma cells (L540cy); experiment: In vitro cytotoxicity, CellTiter-Glo 96 h, L540cy; details: read-out: Cytotoxic potency (IC50 class), L540cy
Protocol: as §2, §3

[11] = test system: melanoma cells (SK-MEL-5); experiment: In vitro cytotoxicity, CellTiter-Glo 96 h, SK-MEL-5; details: Homo sapiens, SK-MEL-5, read-out: Cytotoxic potency as free drug, IC50, SK-MEL-5
Protocol: as §2, §4

[12] = test system: CD30/MDR+ DEL-BVR cell line (DEL brentuximab vedotin resistant); experiment: In vitro cytotoxicity, CellTiter-Glo 96 h, DEL-BVR; format: cell-based; details: Table 2, CD30/MDR+ DEL-BVR
Protocol: (§1) The parental DEL lymphoma cell line was cultured in the presence of brentuximab vedotin to induce over-expression of the MDR phenotype, resulting in the DEL brentuximab vedotin resistant line (DEL-BVR). Brentuximab vedotin, which is Ag2-vc-MMAE (DAR=4) was included as a control. Ex_4-1 refers to MP-PEG4-VKG-7-MAD-MDCPT.

[13] = test system: CD30+ parental DEL lymphoma cell line; experiment: In vitro cytotoxicity, CellTiter-Glo 96 h, DEL; format: cell-based; details: Table 2, CD30+ parental DEL
Protocol: as §1

[14] = 1000 ng/mL, relative to untreated cells
[15] = DAR in parenthesis of label, 96 h

Compound	IC50 [1]	IC50 [2]	IC50 [3]	IC50 [4]	IC50 [5]	IC50 [6]	IC50 [7]	IC50 [8]	IC50 [9]	IC50 [10]	IC50 [11]	percent cells remaining at highest concentration tested, DEL-BVR [12, 14]	IC50, DEL-BVR [12, 15]	percent cells remaining at highest concentration tested, DEL [13, 14]	IC50, DEL [13, 15]
CCCCCCc1c2c(nc3cc4c(cc13)OCO4)-c1cc3c(c(=O)n1C2)COC(=O)[C@]3(O)CC [Compound 6k]	0.1 to 1 nM	10 to 100 nM	1 to 10 nM	10 to 100 nM	1 to 10 nM	1 to 10 nM	100 to 1000 nM	1 to 10 nM	1 to 10 nM	1 to 10 nM	1 to 10 nM	–	–	–	–
CC[C@@]1(O)C(=O)OCc2c1cc1n(c2=O)Cc2c-1nc1cc3c(cc1c2C(C)(C)C)OCO3 [Compound 6l]	0.1 to 1 nM	1 to 10 nM	1 to 10 nM	1 to 10 nM	1 to 10 nM	1 to 10 nM	1 to 10 nM	1 to 10 nM	1 to 10 nM	1 to 10 nM	1 to 10 nM	–	–	–	–
CC[C@@]1(O)C(=O)OCc2c1cc1n(c2=O)Cc2c-1nc1cc3c(cc1c2C1CC1)OCO3 [Compound 6m]	0.1 to 1 nM	1 to 10 nM	1 to 10 nM	1 to 10 nM	0.1 to 1 nM	0.1 to 1 nM	10 to 100 nM	0.1 to 1 nM	1 to 10 nM	0.1 to 1 nM	1 to 10 nM	–	–	–	–
CC[C@@]1(O)C(=O)OCc2c1cc1n(c2=O)Cc2c-1nc1cc3c(cc1c2CC(C)(C)C)OCO3 [Compound 6n]	1 to 10 nM	1 to 10 nM	1 to 10 nM	1 to 10 nM	1 to 10 nM	1 to 10 nM	10 to 100 nM	1 to 10 nM	1 to 10 nM	1 to 10 nM	1 to 10 nM	–	–	–	–
CC[C@@]1(O)C(=O)OCc2c1cc1n(c2=O)Cc2cc3cc4c(cc3nc2-1)OCO4 [Compound 6o]	0.1 to 1 nM	10 to 100 nM	1 to 10 nM	10 to 100 nM	1 to 10 nM	1 to 10 nM	100 to 1000 nM	1 to 10 nM	1 to 10 nM	1 to 10 nM	1 to 10 nM	–	–	–	–
CC[C@@]1(O)C(=O)OCc2c1cc1n(c2=O)Cc2c-1nc1cc3c(cc1c2C)OCO3 [Compound 6p]	0.1 to 1 nM	1 to 10 nM	0.1 to 1 nM	1 to 10 nM	0.1 to 1 nM	0.1 to 1 nM	10 to 100 nM	0.1 to 1 nM	0.1 to 1 nM	0.1 to 1 nM	0.1 to 1 nM	–	–	–	–
CC[C@@]1(O)C(=O)OCc2c1cc1n(c2=O)Cc2c-1nc1cc(F)c(C)c3c1c2[C@@H](NC(=O)CO)CC3 [Compound 8a]	1 to 10 nM	10 to 100 nM	10 to 100 nM	10 to 100 nM	1 to 10 nM	1 to 10 nM	100 to 1000 nM	1 to 10 nM	10 to 100 nM	1 to 10 nM	10 to 100 nM	–	–	–	–
CC[C@@]1(O)C(=O)OCc2c1cc1n(c2=O)Cc2c-1nc1cc(F)c(C)c3c1c2[C@@H](N)CC3 [Compound 8b]	0.1 to 1 nM	10 to 100 nM	1 to 10 nM	10 to 100 nM	1 to 10 nM	1 to 10 nM	10 to 100 nM	1 to 10 nM	1 to 10 nM	1 to 10 nM	1 to 10 nM	–	–	–	–
CC[C@@]1(O)C(=O)OCc2c1cc1n(c2=O)Cc2c-1nc1cc3c(cc1c2CO)OCO3 [Compound 8c]	0.1 to 1 nM	1 to 10 nM	1 to 10 nM	1 to 10 nM	1 to 10 nM	1 to 10 nM	10 to 100 nM	0.1 to 1 nM	1 to 10 nM	0.1 to 1 nM	1 to 10 nM	–	–	–	–
CCc1c2c(nc3ccc(O)cc13)-c1cc3c(c(=O)n1C2)COC(=O)[C@]3(O)CC [Compound 8d]	10 to 100 nM	10 to 100 nM	1 to 10 nM	1 to 10 nM	1 to 10 nM	1 to 10 nM	1 to 10 nM	1 to 10 nM	1 to 10 nM	10 to 100 nM	1 to 10 nM	–	–	–	–
Brentuximab vedotin [Ag2-vcMMAE (4), reference compound]	–	–	–	–	–	–	–	–	–	–	–	(93) percent	>1 µg/mL	(1) percent	0.0005 µg/mL
